Assays:
[1] = Half-life period of compound was measured in rat plasma.; assay type: ADME
[2] = species: Rattus norvegicus; assay: Intracellular concentration of 1-naphthalenemethylphosphonate (NMPA) in isolated rat hepatocytes was measured after 15 min of incubation.; assay type: functional; settings: Hepatocyte

half-life [1] | SMILES | Concentration [2]
2 min | COc1cccc2c1C(=O)OC2OP(=O)(Cc1cccc2ccccc12)OC1OC(=O)c2c(OC)cccc21 (configuration not stated) | 336 µM
10 min | Cc1ccc2c(c1-c1ccccc1)C(=O)OC2OP(=O)(Cc1cccc2ccccc12)OC1OC(=O)c2c1ccc(C)c2-c1ccccc1 (configuration not stated) | 20 µM
0.5 min | O=C1OC(OP(=O)(Cc2cccc3ccccc23)OC2OC(=O)c3ccccc32)c2ccccc21 (configuration not stated) | 500 µM
5 min | COc1cc2c(c(OC)c1OC)C(=O)OC2OP(=O)(Cc1cccc2ccccc12)OC1OC(=O)c2c1cc(OC)c(OC)c2OC (configuration not stated) | 246 µM
0.1 min | O=C1OC(OP(=O)(Cc2cccc3ccccc23)OC2OC(=O)c3c(Cl)ccc(Cl)c32)c2c(Cl)ccc(Cl)c21 (configuration not stated) | 78 µM

Continued, molecule first:

SMILES | half-life [1] | Concentration [2]
COc1ccc2c(c1)C(OP(=O)(Cc1cccc3ccccc13)OC1OC(=O)c3ccc(OC)cc31)OC2=O (configuration not stated) | 0.5 min | 428 µM
COc1cccc2c1C(OP(=O)(Cc1cccc3ccccc13)OC1OC(=O)c3cccc(OC)c31)OC2=O (configuration not stated) | – | 0 µM
O=P(O)(O)Cc1cccc2ccccc12 | – | 0 µM
COc1cc(OC)c2c(c1)C(OP(=O)(Cc1cccc3ccccc13)OC1OC(=O)c3c(OC)cc(OC)cc31)OC2=O (configuration not stated) | – | 359 µM
CCOc1cccc2c1C(=O)OC2OP(=O)(Cc1cccc2ccccc12)OC1OC(=O)c2c(OCC)cccc21 (configuration not stated) | 2 min | 208 µM

Source: ChEMBL document CHEMBL1132125, “Synthesis of phosphonate 3-phthalidyl esters as prodrugs for potential intracellular delivery of phosphonates” (Bioorg Med Chem Lett, 1999)
